Measurements as given in the supplement of paper PMC11061612.

Tests used:
Trametinib = compound: CC(=O)Nc1cccc(-n2c(=O)n(C3CC3)c(=O)c3c(Nc4ccc(I)cc4F)n(C)c(=O)c(C)c32)c1 [Trametinib]; details: max 1 µM
Summary of the method: (§1)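 Cancer cell lines were seeded into 1536-well plates in 7.5 μl medium (DMEM/F12 or RPMI, 10% FBS), held 24 hours at 37°C and 5% CO2, and dosed for 72 hours with final DMSO typically 0.2%. Luminescence from CellTiter-Glo 2.0, scaled between blank-well and DMSO-well means, served as viability. The single-agent IC50 was obtained from dose-response fits with a non-linear mixed effects model, each fit being a two-parameter logistic curve.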

Prexasertib = compound: COc1cccc(OCCCN)c1-c1cc(Nc2cnc(C#N)cn2)n[nH]1 [Prexasertib]; details: max 1 µM
Summary of the method: as §1

Doxorubicin = compound: COc1cccc2c1C(=O)c1c(O)c3c(c(O)c1C2=O)C[C@@](O)(C(=O)CO)C[C@@H]3O[C@H]1C[C@H](N)[C@H](O)[C@H](C)O1 [Doxorubicin]; details: max 1 µM
Summary of the method: as §1

5-Fluorouracil = compound: O=c1[nH]cc(F)c(=O)[nH]1 [5-Fluorouracil]; details: max 20 µM
Summary of the method: as §1

Lapatinib = compound: CS(=O)(=O)CCNCc1ccc(-c2ccc3ncnc(Nc4ccc(OCc5cccc(F)c5)c(Cl)c4)c3c2)o1 [Lapatinib]; details: max 10 µM
Summary of the method: as §1

Selumetinib = compound: Cn1cnc2c(F)c(Nc3ccc(Br)cc3Cl)c(C(=O)NOCCO)cc21 [Selumetinib]; details: max 10 µM
Summary of the method: as §1

Gefitinib = compound: COc1cc2ncnc(Nc3ccc(F)c(Cl)c3)c2cc1OCCCN1CCOCC1 [Gefitinib]; details: max 10 µM
Summary of the method: as §1

AZD1390 = compound: CC(C)n1c(=O)n(C)c2cnc3cc(F)c(-c4ccc(OCCCN5CCCCC5)nc4)cc3c21 [AZD1390]; details: max 0.3 µM
Summary of the method: as §1

MK-2206 = compound: NC1(c2ccc(-c3nc4ccn5c(=O)[nH]nc5c4cc3-c3ccccc3)cc2)CCC1 [MK-2206]; details: max 10 µM
Summary of the method: as §1

Venetoclax = compound: CC1(C)CCC(CN2CCN(c3ccc(C(=O)NS(=O)(=O)c4ccc(NCC5CCOCC5)c([N+](=O)[O-])c4)c(Oc4cnc5[nH]ccc5c4)c3)CC2)=C(c2ccc(Cl)cc2)C1 [Venetoclax]; details: max 1 µM
Summary of the method: as §1

Crizotinib = compound: C[C@@H](Oc1cc(-c2cnn(C3CCNCC3)c2)cnc1N)c1c(Cl)ccc(F)c1Cl [Crizotinib]; details: max 10 µM
Summary of the method: as §1

AZD8186 = compound: C[C@@H](Nc1cc(F)cc(F)c1)c1cc(C(=O)N(C)C)cc2c(=O)cc(N3CCOCC3)oc12 [AZD8186]; details: max 10 µM
Summary of the method: as §1

AZD7648 = compound: Cc1cc2ncnn2cc1Nc1ncc2c(n1)n(C1CCOCC1)c(=O)n2C [AZD7648]; details: max 10 µM
Summary of the method: as §1

SRA737 = compound: N#Cc1cnc(Nc2cc(NC[C@H]3CNCCO3)c(C(F)(F)F)cn2)cn1 [SRA737]; details: max 10 µM
Summary of the method: as §1

AZD0156 = compound: CN(C)CCCOc1ccc(-c2ccc3ncc4c(c3c2)n(C2CCOCC2)c(=O)n4C)cn1 [AZD0156]; details: max 3 µM
Summary of the method: as §1

AZD1775 = compound: C=CCn1c(=O)c2cnc(Nc3ccc(N4CCN(C)CC4)cc3)nc2n1-c1cccc(C(C)(C)O)n1 [AZD1775]; details: max 3 µM
Summary of the method: as §1

AZD4320 = compound: CN(CC[C@H](CSC1=CC=CC=C1)NC2=C(C=C(C=C2)S(=O)(=O)NC(=O)C3=CC=C(C=C3)N4CCC(CC4)[C@H](C5=CC=CC=C5C6=CC=C(C=C6)Cl)O)S(=O)(=O)C(F)(F)F)CCO [AZD4320]; details: max 1 µM
Summary of the method: as §1

[1] = compound: O=C(Nc1ccc2[nH]nc(-c3ccncc3)c2c1)[C@@H]1CCN(CC(=O)N2CCN(c3ccc(-c4ncccn4)cc3)CC2)C1; details: max 5 µM
Summary of the method: as §1

SN-38 = compound: CCc1c2c(nc3ccc(O)cc13)-c1cc3c(c(=O)n1C2)COC(=O)[C@]3(O)CC [SN-38]; details: max 0.3 µM
Summary of the method: as §1

Taselisib = compound: Cc1nc(-c2cn3c(n2)-c2ccc(-c4cnn(C(C)(C)C(N)=O)c4)cc2OCC3)n(C(C)C)n1 [Taselisib]; details: max 10 µM
Summary of the method: as §1

Paclitaxel = compound: CC(=O)O[C@H]1C(=O)[C@@]2(C)[C@H]([C@H](OC(=O)c3ccccc3)[C@]3(O)C[C@H](OC(=O)[C@H](O)[C@@H](NC(=O)c4ccccc4)c4ccccc4)C(C)=C1C3(C)C)[C@]1(OC(C)=O)CO[C@@H]1C[C@@H]2O [Paclitaxel]; details: max 3 µM
Summary of the method: as §1

Carboplatin = compound: C1CC(C1)(C(=O)[O-])C(=O)[O-].N.N.[Pt+2] [Carboplatin]; details: max 10 µM
Summary of the method: as §1

AZD6738 = compound: C[C@@H]1COCCN1C2=NC(=NC(=C2)C3(CC3)[S@](=N)(=O)C)C4=C5C=CNC5=NC=C4 [AZD6738]; details: max 10 µM
Summary of the method: as §1

Etoposide = compound: COc1cc([C@@H]2c3cc4c(cc3[C@@H](O[C@@H]3O[C@@H]5CO[C@@H](C)O[C@H]5[C@H](O)[C@H]3O)[C@H]3COC(=O)[C@H]23)OCO4)cc(OC)c1O [Etoposide]; details: max 10 µM
Summary of the method: as §1

Alisertib = compound: COc1cc(Nc2ncc3c(n2)-c2ccc(Cl)cc2C(c2c(F)cccc2OC)=NC3)ccc1C(=O)O [Alisertib]; details: max 10 µM
Summary of the method: as §1

AZD5991 = compound: Cc1c2c(nn1C)CSCc1cc(n(C)n1)CSc1cc(c3ccccc3c1)OCCCc1c(C(=O)O)n(C)c3c-2c(Cl)ccc13 [AZD5991]; details: max 1 µM
Summary of the method: as §1

Olaparib = compound: O=C(c1cc(Cc2n[nH]c(=O)c3ccccc23)ccc1F)N1CCN(C(=O)C2CC2)CC1 [Olaparib]; details: max 10 µM
Summary of the method: as §1

Dasatinib = compound: CC1=C(C(=CC=C1)Cl)NC(=O)C2=CN=C(S2)NC3=CC(=NC(=N3)C)N4CCN(CC4)CCO [Dasatinib]; details: max 2 µM
Summary of the method: as §1

AZD5153 = compound: COc1nnc2ccc(N3CCC(c4ccc(OCCN5CCN(C)C(=O)[C@H]5C)cc4)CC3)nn12 [AZD5153]; details: max 1 µM
Summary of the method: as §1

SG3199 = compound: CC1=CN2[C@@H](C1)C=NC3=CC(=C(C=C3C2=O)OC)OCCCCCOC4=C(C=C5C(=C4)N=C[C@@H]6CC(=CN6C5=O)C)OC [SG3199]; details: max 0.001 µM
Summary of the method: as §1

Gemcitabine = compound: Nc1ccn([C@@H]2O[C@H](CO)[C@@H](O)C2(F)F)c(=O)n1 [Gemcitabine]; details: max 0.3 µM
Summary of the method: as §1

Savolitinib = compound: C[C@@H](c1ccc2nccn2c1)n1nnc2ncc(-c3cnn(C)c3)nc21 [Savolitinib]; details: max 1 µM
Summary of the method: as §1

AZD5363 = compound: C1CN(CCC1(C(=O)N[C@@H](CCO)C2=CC=C(C=C2)Cl)N)C3=NC=NC4=C3C=CN4 [AZD5363]; details: max 10 µM
Summary of the method: as §1

Palbociclib = compound: CC(=O)c1c(C)c2cnc(Nc3ccc(N4CCNCC4)cn3)nc2n(C2CCCC2)c1=O [Palbociclib]; details: max 10 µM
Summary of the method: as §1

AZD2811 = compound: CCN(CCO)CCCOc1ccc2c(Nc3cc(CC(=O)Nc4cccc(F)c4)[nH]n3)ncnc2c1 [AZD2811]; details: max 1 µM
Summary of the method: as §1

Cell Line | IC50, cell viability 72 h (Trametinib) [nM] | IC50, cell viability 72 h (Prexasertib) [nM] | IC50, cell viability 72 h (Doxorubicin) [nM] | IC50, cell viability 72 h (5-Fluorouracil) [nM] | IC50, cell viability 72 h (Lapatinib) [nM] | IC50, cell viability 72 h (Selumetinib) [nM] | IC50, cell viability 72 h (Gefitinib) [nM] | IC50, cell viability 72 h (AZD1390) [nM] | IC50, cell viability 72 h (MK-2206) [nM] | IC50, cell viability 72 h (Venetoclax) [nM] | IC50, cell viability 72 h (Crizotinib) [nM] | IC50, cell viability 72 h (AZD8186) [nM] | IC50, cell viability 72 h (AZD7648) [nM] | IC50, cell viability 72 h (SRA737) [nM] | IC50, cell viability 72 h (AZD0156) [nM] | IC50, cell viability 72 h (AZD1775) [nM] | IC50, cell viability 72 h (AZD4320) [nM] | IC50, cell viability 72 h [1] [nM] | IC50, cell viability 72 h (SN-38) [nM] | IC50, cell viability 72 h (Taselisib) [nM] | IC50, cell viability 72 h (Paclitaxel) [nM] | IC50, cell viability 72 h (Carboplatin) [nM] | IC50, cell viability 72 h (AZD6738) [nM] | IC50, cell viability 72 h (Etoposide) [nM] | IC50, cell viability 72 h (Alisertib) [nM] | IC50, cell viability 72 h (AZD5991) [nM] | IC50, cell viability 72 h (Olaparib) [nM] | IC50, cell viability 72 h (Dasatinib) [nM] | IC50, cell viability 72 h (AZD5153) [nM] | IC50, cell viability 72 h (SG3199) [nM] | IC50, cell viability 72 h (Gemcitabine) [nM] | IC50, cell viability 72 h (Savolitinib) [nM] | IC50, cell viability 72 h (AZD5363) [nM] | IC50, cell viability 72 h (Palbociclib) [nM] | IC50, cell viability 72 h (AZD2811) [nM]
8305C (Thyroid Gland Carcinoma) | 902 | 87.8 | > 1000 | > 20000 | > 10000 | > 10000 | > 10000 | > 300 | > 10000 | > 1000 | > 10000 | > 10000 | > 10000 | > 10000 | > 3000 | 1940 | > 1000 | > 5000 | > 300 | 1280 | 159 | > 10000 | > 10000 | > 10000 | > 10000 | > 1000 | > 10000 | 1150 | > 1000 | > 1 | > 300 | > 1000 | > 10000 | > 10000 | > 1000
NCI-H69 (Small Cell Lung Carcinoma) | > 1000 | > 1000 | > 1000 | > 20000 | > 10000 | > 10000 | > 10000 | > 300 | 4550 | > 1000 | 5700 | > 10000 | > 10000 | > 10000 | > 3000 | 2370 | 59.5 | > 5000 | 123 | 546 | 4.64 | > 10000 | > 10000 | > 10000 | 1110 | > 1000 | > 10000 | > 2000 | > 1000 | > 1 | > 300 | > 1000 | > 10000 | > 10000 | 342
RT-112 (Bladder Carcinoma) | 305 | 31.2 | > 1000 | > 20000 | > 10000 | > 10000 | > 10000 | > 300 | > 10000 | > 1000 | > 10000 | > 10000 | > 10000 | > 10000 | > 3000 | 549 | > 1000 | 3600 | 255 | 2950 | 9.52 | > 10000 | 4410 | > 10000 | 2220 | 413 | > 10000 | > 2000 | > 1000 | > 1 | 291 | > 1000 | > 10000 | > 10000 | > 1000
